Results taken from patent US20030186888A1, “Diastereo analog of peptide SPFK-amide with selective anti-microbial activity and a method thereof” (priority 2002, published 2003).
Entries after “also recorded” stand apart in the source; their conditions may differ. Square brackets hold non-standard residues; d marks the D form. Peptide text beside a SMILES is read from it.

Experiments:
Format in all cases: cell-based
rat erythrocytes = test system: rat erythrocytes
Description: In further embodiment of the present invention, hemolytic activity of the peptides was assessed on freshly isolated rat erythrocytes. Heparinized rat blood in saline was initially centrifuged at 1000×g for 10 min to remove the buffy coat. The erythrocyte suspension was further washed thrice with 5 mM Hepes, pH 7.4 containing 150 mM NaCl. Aliquots of cell suspension ( 10^6 cells) in eppendorf tubes were incubated with the peptide in […]° C. for 30 min with gentle mixing. The tubes were then centrifuged and the absorbance of the supernatants was measured at 540 nm. The lysis obtained with 1% triton X 100 was taken as 100%. FIG. 5. Hemolysis of rat erythrocytes as a function of peptide concentration concentration Erythrocytes (-10^6/ml) were incubated in Hepes buffered isotonic saline containing various concentrations of SPFK analogs. SPFK (A). Other symbols same as that in FIG. 1.

E. coli = assay: Bactericidal activity by plating and colony counting; settings: on E. coli
Description: (§1) In further embodiment of the present invention, for determining antimicrobial activity, antimicrobial activity was assayed as follows: Different concentrations of peptides were added to 1 ml of synthetic medium [KH2PO4, 10.5 g; K2HPC>4, 4.5 g; (NH4)2SO4, 1 g; MgSO4, 0.1 g; L-arginine, 0.1 g and glucose 1% for one litre of medium] for E. coli or nutrient broth for other microorganisms, containing an inocula of the test organism adjusted to ˜10^6 CFU/ml. Microbial growth was determined by monitoring the increase in ODeoo after incubating under aerobic conditions at 37° C. for 6-8 h (30° C. for P. aeruginosa). The bactericidal activity of the peptides was determined by plating suitably diluted cultures after incubation with the peptides on nutrient agar plates. The plates were incubated at 37° C. for 18 h for colony counting. Outer membrane permeabilization assays were done by fluorescent monitoring of uptake of N-phenyl-1-N-naphthyl amine (NPN) (26). […] The excitation monochromator was set at 350 nm and emission at 420 nm was continuously monitored after addition of the peptide from an aqueous stock solution. […] Inner membrane permeability of E. coli W 160.37 was monitored by measuring the p-galactosidase activity in preinduced cells (with 5×10′^4 M IPTG), in the presence of different concentration of the peptide using 0-nitro phenyl-3-D-galactoside (ONPG)(27).

microorganisms tested = assay: Antimicrobial activity (growth inhibition, MIC); settings: growth of the microorganisms tested
Description: as §1

SMILES | hemolytic activity (in words) (rat erythrocytes) | bactericidal concentration (E. coli) [µg/mL] | bacteriostatic concentration (E. coli) [µg/L] | antimicrobial activity / MIC (in words) (microorganisms tested)
CC[C@H](C)[C@H](NC(=O)[C@H](Cc1c[nH]c2ccccc12)NC(=O)[C@H](CCCCN)NC(=O)[C@H](CO)NC(=O)[C@@H](CC(C)C)NC(=O)[C@H](Cc1ccccc1)NC(=O)[C@@H](NC(=O)[C@H](CCCCN)NC(=O)[C@@H](CC(C)C)NC(=O)[C@H](CC(C)C)NC(=O)[C@H](CCCCN)NC(=O)[C@@H]1CCCN1)[C@@H](C)O)C(=O)NCC(=O)O [DSac] (H-PKL[dL]KTF[dL]SKWIG-OH) | very little hemolytic activity | – | – | –
CC[C@H](C)[C@H](NC(=O)[C@H](Cc1c[nH]c2ccccc12)NC(=O)[C@H](CCCCN)NC(=O)[C@H](CO)NC(=O)[C@@H](CC(C)C)NC(=O)[C@H](Cc1ccccc1)NC(=O)[C@@H](NC(=O)[C@H](CCCCN)NC(=O)[C@@H](CC(C)C)NC(=O)[C@H](CC(C)C)NC(=O)[C@H](CCCCN)NC(=O)[C@@H]1CCCN1)[C@@H](C)O)C(=O)NCC(N)=O [DSam] (H-PKL[dL]KTF[dL]SKWIG-NH2; N-terminus assumed) | – | > 50 | 30 | exhibits activity with MIC's comparable to that of SPFK and its retro isomers; also recorded: MICs comparable to that of SPFK and the retro analogs
